Consider one molecule from US8846653B2, “Delta-tocotrienol treatment and prevention of pancreatic cancer” (University of South Florida, priority 2006, dated 2014).

Series [1] concerns MIA PaCa2 cells. The series is described as follows: MTT cell viability, δ-tocotrienol, fluorouracil or combination. The format is cell-based, human. How it is done: FIG. 39 is a graph MIA PaCa2 pancreatic cancer cells (3×10^3) treated with indicated concentrations of delta-tocotrienol, fluorouracil (5FU), or a combination of the indicated delta-tocotrienol and 5FU.
The MiaPaCa 2 cells were plated as above into 96 well plates and treated the following day with increasing concentrations of δ-tocotrienol, fluorouracil (5FU), or a combination of δ-tocotrienol and fluorouracil. The cells were collected and analyzed for cell viability using an MTT assay. […] MIA PaCa2 cells (3×10^3) were cultured as described in the Examples above, in 96-well plates and treated the following day with vehicle, δ-tocotrienol, fluorouracil, or a combination of δ-tocotrienol and fluorouracil.

Series [2] has as its system SW1990 cells. The series is described as follows: Annexin V-FITC staining, flow cytometry for apoptosis. Type of series: cell-based, human. Conditions: SW1990, varying concentrations, 24 hours. The protocol:
FIG. 5 is a graph wherein SW1990 pancreatic cancer cells were treated with in varying concentrations of δ-tocotrienol or vehicle for 24 hours. Cells were collected and stained with Annexin V-FITC and analyzed by flow cytometry for apoptosis.
(§1) MiaPaCa2 and HPDE 6C7 cells were cultured, as discussed above, and treated with δ-tocotrienol or vehicle. […] MiaPaCa-2, BxPc-3, and SW1990 pancreatic cancer cells were treated with in varying concentrations of δ-tocotrienol or vehicle for 24 hours. The cells were then harvested for annexin V-FITC staining and analyzed by flow cytometry.
In general terms: In flow cytometry, cells or beads pass a laser one at a time.

The next series deals with MiaPaCa-2 cells. The series is described as above. Conditions: MiaPaCa-2, varying concentrations, 24 hours. The format is cell-based, human. How it is done: FIG. 3 is a graph wherein MIA PaCa-2 pancreatic cancer cells were treated with in varying concentrations of δ-tocotrienol or vehicle for 24 hours. Cells were collected and stained with Annexin V-FITC and analyzed by flow cytometry for apoptosis.
as §1

Series [3] has as its system SW1990 cells. The series is described as follows: Proliferation by MTT, increasing concentrations of δ-tocotrienol. The format is cell-based, human. Conditions: SW1990, at 24 hours; read-out: IC50 (inhibition of proliferation, MTT). How it is done:
FIG. 23 is a graph wherein SW1990 pancreatic cancer cells (3×10^3) were plated in 96 well plates and treated the following day with δ-tocotrienol. Proliferation was assessed by MTT at 24 hour intervals. […] HPDE 6C7 cells were also treated with increasing concentrations of 8-tocotrienol for 24 hours.
MIA PaCa2, SW1990, BXPC3, and HPDE 6C7 cells (3×10^3) were cultured as described in the Examples above, in 96-well plates and treated the following day with increasing concentrations of δ-tocotrienol.

Series [4] in a line: Plasma and mouse tissue levels by HPLC-UV. The format is in vivo. The source says: FIG. 52 is a graph showing tissue levels of delta-tocotrienol. *p=0.0044; # p=0.0034; † p=0.0181.
Another series concerns p-AKT. The series is described as follows: Immunoblot for p-AKT and AKT. Type of series: cell-based, human. Conditions: MIA PaCa2 and SW1990, 20 μM, 24 and 48 hours. The protocol: The Ras effector pathways Raf-MEK-ERK and PI3 kinase-AKT are important for cell proliferation and survival, respectively. Pancreatic cancer cell lines (MIA PaCa2, SW1990, BXPC3) and HPDE 6C7 cells were treated with 8-tocotrienol (20 μM) and cell lysates were collected and prepared at progressive time intervals as described above. Proteins from lysates were run by SDS PAGE and immunoblotted with the following antibodies: Ras, p-cRaf (ser 338), p-MEK1/2, MEK1/2, pERK 44/42, ERK 44/42 (Cell Signaling) and c-Raf (BD Transduction Laboratories). […] The MIA PaCa2 and SW1990 cells were then tested for AKT inhibition. The cells were treated with δ-tocotrienol (20 μM) for 24 and 48 hours and cell lysates were run by SDS-PAGE and immunoblotted for p-AKT and AKT (Cell Signaling). […] Taken together, the inhibition of downstream effectors of oncogenic Ras signaling by δ-tocotrienol without an effect on Ras protein levels may indicate a negative regulatory role of 8-tocotrienol on the function of oncogenic Ras. The pancreatic ductal epithelial cell proliferative inhibition by δ-tocotrienol was tested to see if it occurs through blocking aberrant signal transduction cascades. […]
A general note: A western blot detects proteins with antibodies after separation by electrophoresis.

Series [5] deals with p27^kip1 luciferase reporter. As to the kind of experiment: p27^kip1 luciferase reporter assay. Type of series: cell-based, human. Conditions: Mia PaCa2, 20 μM, 24 hours. How it is done: The mechanism by which δ-tocotrienol upregulates p27^kip1 protein expression was investigated using a luciferase reporter assay. Mia PaCa2 cells transfected with a p27^kip1 luciferase reporter (Wang, et al. Activation of p27Kip1 Expression by E2F1. A negative feedback mechanism. J Biol. Chem. 2005 Apr. 1; 280(13):12339-43. Epub 2005 Feb. 14) were treated with either δ-tocotrienol (20 μM) or vehicle for 24 hours and luciferase activity was then measured using a luminometer.

The next series concerns HPDE 6C7 cells. As to the kind of experiment: Cell cycle phase by propidium iodide flow cytometry. Conditions: HPDE 6C7, 20 μM, 24 hours. The format is cell-based, human. How it is done: (§2) MIA PaCa2, SW 1990, BXPC3 and HPDE 6C7 cells were treated with either 8-tocotrienol 20 μM or vehicle for 24 hours. Cells were harvested, washed twice in PBS, and fixed in ethanol overnight. Pellets were washed the following day in PBS, stained with propidium iodide, and analyzed by flow cytometry for cell cycle phase. […] Important regulators of the G1 cell cycle phase include members of the cyclin kinase inhibitor family. One of these members, p27^kip1, appears to be important in the progression of pancreatic cancer.

A further series concerns BXPC3 cells. The description is as above. The format is cell-based, human. Conditions: BXPC3, 20 μM, 24 hours. How it is done:
as §2

A further series has as its system SW 1990 cells. The series is described as above. The format is cell-based, human. Conditions: SW 1990, 20 μM, 24 hours. How it is done: as §2
Series [6] deals with MIA PaCa2 cells. The series is described as above. The format is cell-based, human. Conditions: MIA PaCa2, 20 μM, 24 hours. How it is done:
as §2

Molecules are shown by their SMILES.

For the molecule `CC(C)=CCC/C(C)=C/CC/C(C)=C/CC[C@]1(C)CCc2cc(O)cc(C)c2O1` [T3 delta, delta tocotrienol], the “concentration at which the effect became significant vs vehicle” value in the series with MIA PaCa2 cells [1] is 50 µM. Besides, the IC50 was 50 µM in the series with MIA PaCa2 cells [1] (at 24 hours) and 20 to 25 µM in the series on SW1990 cells [3]. Further, the “induction of apoptosis (annexin V-FITC)” value in the series with SW1990 cells [2] and in the series with MiaPaCa-2 cells was “dose dependent induction of apoptosis” in each case. Also, in series [4] (mouse plasma), the plasma level entry is on record as “detectable in plasma”. In addition, in [4] (mouse tissue), the “localization in the pancreas compared to liver and pancreatic tumor levels (factor)” value was 10. Also, the p-AKT protein levels entry in the series with p-AKT is listed as “decrease in p-AKT protein levels”. For the same molecule, in series [5], the “luciferase activity (p27^kip1 reporter)” value is “increase in luciferase activity”. Further, the cell cycle phase entry in the series with HPDE 6C7 cells is recorded as “no effect on cell cycle phase”; in the series with BXPC3 cells, “significant G1 cell cycle arrest”; in the series on SW 1990 cells it was “significant G1 cell cycle arrest”; in the series on MIA PaCa2 cells [6], “significant G1 cell cycle arrest”.
